The source of these data is ChEMBL document CHEMBL5728835, “3-(5-amino-1-oxoisoindolin-2-yl)piperidine-2,6-dione derivatives and uses thereof” (2021).

For this test, the target named is Eukaryotic peptide chain release factor GTP-binding subunit ERF3A (Homo sapiens, UniProt P15170).
Chain of Eukaryotic peptide chain release factor GTP-binding subunit ERF3A (P15170 whole entry): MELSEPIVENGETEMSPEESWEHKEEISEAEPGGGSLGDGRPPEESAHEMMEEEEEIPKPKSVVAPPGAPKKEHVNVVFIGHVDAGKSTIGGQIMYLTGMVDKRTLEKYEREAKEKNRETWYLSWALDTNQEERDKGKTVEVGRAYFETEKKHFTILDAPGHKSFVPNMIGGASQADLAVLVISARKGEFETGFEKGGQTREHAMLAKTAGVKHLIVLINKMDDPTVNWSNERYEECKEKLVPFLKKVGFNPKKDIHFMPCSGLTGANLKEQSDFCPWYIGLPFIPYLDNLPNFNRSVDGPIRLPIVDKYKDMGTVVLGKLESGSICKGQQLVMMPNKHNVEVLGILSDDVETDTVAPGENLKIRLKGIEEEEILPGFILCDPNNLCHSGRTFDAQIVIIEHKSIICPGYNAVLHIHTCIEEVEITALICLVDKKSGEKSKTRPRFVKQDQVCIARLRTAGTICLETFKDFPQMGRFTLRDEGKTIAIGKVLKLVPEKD

Broadly, the EC50 is the concentration needed to bring the measured effect to its halfway point. A high value points to lower potency in that assay. `CN[C@H]1CC=CC[C@@H]1N(C)c1ccc2c(c1)CN(C1CCC(=O)NC1=O)C2=O` (stereo partly specified) showed an EC50 greater than 50 µM.
